Assay results published in ChEMBL document CHEMBL4483862, “Open-source discovery of chemical leads for next-generation chemoprotective antimalarials” (2018).

Tested on: Plasmodium berghei
Test: Luciferase/luciferin-expressing antifolate-resistant parasites were used to infect a culture of HepG2 cells that were pre-incubated with compounds. Infected hepatocytes emit light due to the luciferase reaction. Assay results are presented as the percent inhibition of light emission compared to control. […]
Assay type: functional
Conditions: sporozoite; for IC90: read-out: LUCIFERASE INFECTION ASSAY - IC90

| SMILES | IC90 | also measured |
| --- | --- | --- |
| Cc1cccc(/C=C(\c2nc3ccccc3[nH]2)S(=O)(=O)c2ccccc2)c1 | 2.31 µM | IC50 (HEPG2TOX_HILL_SLOPE 1.77, HEPG2TOX_R_SQUARED 0.525, PBLUC_HILL_SLOPE 7.51, 3.20, PBLUC_R_SQUARED 0.576, 0.706, read-out: LUCIFERASE INFECTION ASSAY - IC50): 1.36 µM |
| CCCCCc1c(C(=O)OCC)[nH]c(C)c1C | > 13.9 µM | IC50 (HEPG2TOX_HILL_SLOPE 1.75, HEPG2TOX_R_SQUARED 0.784, PBLUC_HILL_SLOPE 1.37, PBLUC_R_SQUARED 0.743, read-out: LUCIFERASE INFECTION ASSAY - IC50): 5.49 µM |
| CC(C)[C@@H](CO)Nc1nccn2c(-c3cccc(OC(F)(F)F)c3)cnc12 | 6.18 µM | IC50 (HEPG2TOX_HILL_SLOPE 1.77, HEPG2TOX_R_SQUARED 0.938, PBLUC_HILL_SLOPE 1.99, PBLUC_R_SQUARED 0.624, read-out: LUCIFERASE INFECTION ASSAY - IC50): 2.05 µM |
| COCc1cccc(-c2cc(-c3cccc4ccccc34)cnc2N)c1 | 1.23 µM | IC50 (HEPG2TOX_HILL_SLOPE 1.78, HEPG2TOX_R_SQUARED 0.808, PBLUC_HILL_SLOPE 16.4, PBLUC_R_SQUARED 0.784, read-out: LUCIFERASE INFECTION ASSAY - IC50): 1.08 µM |
| FC(F)(F)Oc1cccc(-c2cnc3sc(NCCc4ccncc4)nn23)c1 | > 8.14 µM | IC50 (HEPG2TOX_HILL_SLOPE 1.76, HEPG2TOX_R_SQUARED 0.88, read-out: LUCIFERASE INFECTION ASSAY - IC50): > 8.14 µM |
| COc1ccc(Nc2nc(NCC3CC3)nc3cc(-c4ccccc4)sc23)cc1OC | > 7.63 µM | IC50 (HEPG2TOX_HILL_SLOPE 1.76, HEPG2TOX_R_SQUARED 0.98, PBLUC_HILL_SLOPE 10.6, PBLUC_R_SQUARED 0.159, read-out: LUCIFERASE INFECTION ASSAY - IC50): 6.32 µM |
| C=CCNC(=O)NCC(=O)c1cc(C)n(-c2ccc(C(C)C)cc2)c1C | 3.66 µM | IC50 (HEPG2TOX_HILL_SLOPE 1.75, HEPG2TOX_R_SQUARED 0.807, PBLUC_HILL_SLOPE 19, PBLUC_R_SQUARED 0.54, read-out: LUCIFERASE INFECTION ASSAY - IC50): 3.26 µM |
| CC1=NN(c2ccccc2)C(=O)/C(=C\NC(=O)c2cccc([N+](=O)[O-])c2)N1 | 8.07 µM | IC50 (HEPG2TOX_HILL_SLOPE 1.78, HEPG2TOX_R_SQUARED 0.224, PBLUC_HILL_SLOPE 3.78, PBLUC_R_SQUARED 0.384, read-out: LUCIFERASE INFECTION ASSAY - IC50): 4.51 µM |
| CN1C(=O)N(Cc2ccc3ccccc3c2)C(=O)C12CCN(Cc1cnn(-c3ccc(F)cc3)c1)CC2 | 2.54 µM | IC50 (HEPG2TOX_HILL_SLOPE 1.74, HEPG2TOX_R_SQUARED 0.906, PBLUC_HILL_SLOPE 10.4, PBLUC_R_SQUARED 0.489, read-out: LUCIFERASE INFECTION ASSAY - IC50): 2.06 µM |
| Cn1ccc2cc(-c3cnc4cnc(-c5ccc(N)nc5)cn34)ccc21 | 5.78 µM | IC50 (HEPG2TOX_HILL_SLOPE 1.74, HEPG2TOX_R_SQUARED 0.96, PBLUC_HILL_SLOPE 2.26, PBLUC_R_SQUARED 0.858, read-out: LUCIFERASE INFECTION ASSAY - IC50): 2.18 µM |
| Cc1nc(C(=O)NNC(=O)c2ccc(C(C)(C)C)cc2)cs1 | 6.76 µM | IC50 (HEPG2TOX_HILL_SLOPE 1.77, HEPG2TOX_R_SQUARED 0.966, PBLUC_HILL_SLOPE 4.32, PBLUC_R_SQUARED 0.361, read-out: LUCIFERASE INFECTION ASSAY - IC50): 4.06 µM |
| O=C(OCc1cn2cc(Cl)ccc2n1)c1cc([N+](=O)[O-])ccc1N1CCCC1 | 1.23 µM | IC50 (HEPG2TOX_HILL_SLOPE 1.77, HEPG2TOX_R_SQUARED 0.925, PBLUC_HILL_SLOPE 9.51, PBLUC_R_SQUARED 0.622, read-out: LUCIFERASE INFECTION ASSAY - IC50): 0.976 µM |
| Clc1cnc(N/N=C/c2sc(N3CCCCC3)nc2-c2cccs2)c(Cl)c1 | 9.96 µM | IC50 (HEPG2TOX_HILL_SLOPE 1.78, HEPG2TOX_R_SQUARED 0.499, PBLUC_HILL_SLOPE 5.62, PBLUC_R_SQUARED 0.563, read-out: LUCIFERASE INFECTION ASSAY - IC50): 6.74 µM |
| COc1ccc(-c2nonc2NC(=O)c2oc3ccc(F)cc3c2C)cc1 | 1.27 µM | IC50 (HEPG2TOX_HILL_SLOPE 1.77, HEPG2TOX_R_SQUARED 0.888, PBLUC_HILL_SLOPE 11.3, PBLUC_R_SQUARED 0.0148, read-out: LUCIFERASE INFECTION ASSAY - IC50): 1.05 µM |
| O=C(c1c[nH]c(-c2ccccn2)c1)c1cc(Cl)ccc1O | > 10 µM | IC50 (HEPG2TOX_HILL_SLOPE 1.74, HEPG2TOX_R_SQUARED 0.992, PBLUC_HILL_SLOPE 2.29, PBLUC_R_SQUARED 0.459, read-out: LUCIFERASE INFECTION ASSAY - IC50): 5.42 µM |
| CCCCc1[nH]nc2ccnc(-c3ccc(CO)cc3)c12 | > 10 µM | IC50 (HEPG2TOX_HILL_SLOPE 1.75, HEPG2TOX_R_SQUARED 0.977, read-out: LUCIFERASE INFECTION ASSAY - IC50): > 10 µM |

| SMILES | IC90 | also measured |
| --- | --- | --- |
| CCS(=O)(=O)N1CCC(C(=O)Nc2nnc(-c3ccc(Cl)cc3)o2)(c2ccccc2)CC1 | 1.21 µM | IC50 (HEPG2TOX_HILL_SLOPE 1.78, 1.25, HEPG2TOX_R_SQUARED 0.428, 0.956, PBLUC_HILL_SLOPE 18.9, PBLUC_R_SQUARED 0.689, read-out: LUCIFERASE INFECTION ASSAY - IC50): 1.07 µM |
| O=S(=O)(Nc1ccc(C(F)(F)F)cc1Cl)c1cc(C(F)(F)F)ccc1OCC(F)(F)F | 3.28 µM | IC50 (HEPG2TOX_HILL_SLOPE 1.76, HEPG2TOX_R_SQUARED 0.989, PBLUC_HILL_SLOPE 2.99, PBLUC_R_SQUARED 0.37, read-out: LUCIFERASE INFECTION ASSAY - IC50): 1.57 µM |
| CCn1c(-c2ccccc2)c(C(=O)COC(=O)/C=C/c2ccco2)c2ccccc21 | > 10 µM | IC50 (HEPG2TOX_HILL_SLOPE 1.75, HEPG2TOX_R_SQUARED 0.877, PBLUC_HILL_SLOPE 15.9, PBLUC_R_SQUARED 0.384, read-out: LUCIFERASE INFECTION ASSAY - IC50): 9.6 µM |
| COc1ccc(-c2nc(C(=O)N3c4ccccc4CC3C)cs2)cc1OC (configuration not stated) | > 10 µM | IC50 (HEPG2TOX_HILL_SLOPE 1.77, HEPG2TOX_R_SQUARED 0.837, PBLUC_HILL_SLOPE 1.16, PBLUC_R_SQUARED 0.492, read-out: LUCIFERASE INFECTION ASSAY - IC50): 1.9 µM |
| CC(C)c1noc(CN2CCN(c3ncnc4sc(-c5ccccc5)cc34)CC2)n1 | 6.72 µM | IC50 (HEPG2TOX_HILL_SLOPE 1.77, HEPG2TOX_R_SQUARED 0.986, PBLUC_HILL_SLOPE 2.11, PBLUC_R_SQUARED 0.835, read-out: LUCIFERASE INFECTION ASSAY - IC50): 2.37 µM |
| CCN(CC)c1ccc(NC(=O)c2ccc(Br)o2)cc1S(=O)(=O)Nc1ccccc1OC | 4.43 µM | IC50 (HEPG2TOX_HILL_SLOPE 1.78, HEPG2TOX_R_SQUARED 0.619, PBLUC_HILL_SLOPE 2.27, PBLUC_R_SQUARED 0.536, read-out: LUCIFERASE INFECTION ASSAY - IC50): 1.68 µM |
| O=C(/C=C/c1cccnc1)c1ccc(S(=O)(=O)N2CCCC2)cc1 | 7.23 µM | IC50 (HEPG2TOX_HILL_SLOPE 1.78, HEPG2TOX_R_SQUARED 0.606, PBLUC_HILL_SLOPE 4.03, PBLUC_R_SQUARED 0.736, read-out: LUCIFERASE INFECTION ASSAY - IC50): 4.19 µM |
| CN(C)c1cccc(-c2ccc3nnc(-c4ccc5c(c4)OCO5)n3c2)c1 | 5.11 µM | IC50 (HEPG2TOX_HILL_SLOPE 1.77, HEPG2TOX_R_SQUARED 0.976, PBLUC_HILL_SLOPE 2.39, PBLUC_R_SQUARED 0.666, read-out: LUCIFERASE INFECTION ASSAY - IC50): 2.04 µM |
| Cc1cc(=O)n2ncnc2n1CC(O)COc1ccc(Oc2ccccc2)cc1 (configuration not stated) | 8.2 µM | IC50 (HEPG2TOX_HILL_SLOPE 1.76, HEPG2TOX_R_SQUARED 0.892, PBLUC_HILL_SLOPE 2.97, PBLUC_R_SQUARED 0.356, read-out: LUCIFERASE INFECTION ASSAY - IC50): 3.91 µM |
| CCCCc1[nH]nc2ccnc(-c3cncc(OC)c3)c12 | > 10 µM | IC50 (HEPG2TOX_HILL_SLOPE 1.78, HEPG2TOX_R_SQUARED 0.895, read-out: LUCIFERASE INFECTION ASSAY - IC50): > 10 µM |
| Cn1c(-c2ccccc2)c(C(=O)CSc2nnc(-c3cccs3)[nH]2)c2ccccc21 | 7.84 µM | IC50 (HEPG2TOX_HILL_SLOPE 1.76, HEPG2TOX_R_SQUARED 0.96, PBLUC_HILL_SLOPE 1.67, PBLUC_R_SQUARED 0.727, read-out: LUCIFERASE INFECTION ASSAY - IC50): 2.1 µM |
| CC(C)NC(=O)c1csc(C(O)c2ccc(C(C)(C)C)cc2)n1 (configuration not stated) | 8.8 µM | IC50 (HEPG2TOX_HILL_SLOPE 1.76, HEPG2TOX_R_SQUARED 0.8, PBLUC_HILL_SLOPE 2.52, PBLUC_R_SQUARED 0.456, read-out: LUCIFERASE INFECTION ASSAY - IC50): 3.68 µM |
| O=c1nc(-c2ccccn2)[nH]c2scc(-c3ccccc3)c12 | 2.25 µM | IC50 (HEPG2TOX_HILL_SLOPE 1.76, HEPG2TOX_R_SQUARED 0.7, PBLUC_HILL_SLOPE 112, PBLUC_R_SQUARED 0.058, read-out: LUCIFERASE INFECTION ASSAY - IC50): 2.21 µM |
| COc1ccc(N/N=C(\C=N\O)C(=O)c2ccccc2)cc1 | 5.58 µM | IC50 (HEPG2TOX_HILL_SLOPE 1.74, HEPG2TOX_R_SQUARED 0.984, PBLUC_HILL_SLOPE 2.38, PBLUC_R_SQUARED 0.768, read-out: LUCIFERASE INFECTION ASSAY - IC50): 2.22 µM |
| Cc1ccsc1C(=O)Nc1nc2cc3c(cc2s1)OCCO3 | > 10 µM | IC50 (HEPG2TOX_HILL_SLOPE 1.74, HEPG2TOX_R_SQUARED 0.923, PBLUC_HILL_SLOPE 0.323, PBLUC_R_SQUARED 0.422, read-out: LUCIFERASE INFECTION ASSAY - IC50): 0.658 µM |
